According to PMC7332481, “Ecotoxicity screening evaluation of selected pharmaceuticals and their transformation products towards various organisms” (Environmental Science and Pollution Research International, 2020):
Values after ≈ are worked out from the molar mass of the structure shown. Like-named read-outs stand apart in the source and are kept apart here.

Tests used:
Vibrio fischeri = assay: microbe, parasite or virus in culture; type: cell-based
Method: (§1) Stock solutions and dilutions were prepared in 2% NaCl in 0.02 M phosphate buffer, pH 7. The freeze-dried bacteria were rehydrated prior to testing in a reactivation solution. Culture suspensions and diluted samples were pre-incubated at 15 °C for 15 min. After the initial luminescence was measured, 0.5 mL of the culture suspension was mixed with the same volume of a diluted sample. The final bioluminescence was measured after 30 min. Incubation was kept at 15 °C (LUMIStox 300 meter, Dr. Lange GmbH, Berlin, Germany). The relative toxicity of the samples was expressed as a percentage of luminescence inhibition compared to the controls.
as §1, with “m,” for “meter,”

Raphidocelis subcapitata = assay: R. subcapitata reproduction (growth) inhibition test; type: cell-based
Method: (§2) All tests were carried out in accordance with the OECD or ISO guidelines. In general the experimental part was divided into three main steps: (i) determination of the toxicity of the native forms of pharmaceuticals (their racemic mixtures), (ii) toxicity evaluation of the selected TPs of these pharmaceuticals, and (iii) preliminary toxicity assessment of the enantiomers of selected pharmaceuticals. For each assay, range-finding tests were conducted, in order to determine the range of concentrations for the definitive tests. The main tests were repeated three times in at least two parallel replicates, with a minimum of five concentrations for native forms of the selected pharmaceuticals (including their enantiomers). The exact number of replicates and concentrations tested was included in the description of each test. […] However, TPs were tested in a different manner; first, the tests were carried out at the limit concentration of 100 mg L^−1. […] Such approach was applied in order to observe the relative toxicity of the selected TP and its native form.
(§3) Dose-response curves were fitted using a linear logistic or logistic model (the model giving the best fit was chosen) (https://cran.r-project.org/web/packages/drfit/drfit.pdf). The mathematic formulas applied for this purpose are presented and described in the Supplementary Material. The EC50 values were given since log EC50 is a model parameter in the logistic as well as in linear logistic model.
Test organisms were provided from Algal Culture Collection (Universität Göttingen, Germany). […] The light-dark cycle was different from the OECD guidelines, and it was introduced to imitate natural growth conditions. In order to ensure that the algae are in the exponential growth phase when used to inoculate the test solutions, the stock culture was diluted three times a week. The test was carried out in 25 mL suspension cell culture flasks (Nunc) (working volume 10 mL). All operations were performed under sterile conditions. The initial cell concentration was 5 × 10^4 cells mL^−1. Eight different concentrations of every compound in three replicates and a minimum of six controls were used in each test. […] The test flasks were incubated on a shaker with a speed of approx. 75 rpm at the temperature and light conditions described above. Growth inhibition was calculated using the cell counts of the treated samples in relation to the untreated controls after 72 h of exposure. The cells were counted with the use of CASY TT Cell counter & analyzer.

Lemna minor = assay: L. minor growth inhibition test; conditions: for EC50 L. minor (with confidence interval 2.5–97.5%): growth rate inhibition by frond area, 7 days; for toxicity to L. minor: highest tested concentration (100 mg L^−1)
Method: as §2, §3
One week before the assay, the inoculum cultures were prepared; eight healthy plants were placed into a new portion of the medium. Two days before the test, the plants were transferred to a fresh medium, in order to supplement nutrients and to eliminate plant metabolites. The experiments were performed in six-well plates under the conditions described above. The pH value of the Steinberg medium and all solutions was 5.5 (± 0.5). Every test included six different concentrations of compound and six controls in three replicates. The test started with one plant consisting of three fronds and the measured endpoint was the inhibition of growth rate determined by comparing the frond area (mm^2) for the treated plants and untreated controls.

Daphnia magna = assay: D. magna acute immobilization test; type: in vivo; conditions: for mortality at 100 µg/mL: concentration 100 mg L^−1
Method: as §2, §3
Five pre-fed test organisms were incubated with the studied compounds diluted in 10 mL of test media in glass test vessels at 20 °C (± 1 °C) in darkness for 48 h. Each test consisted of a control and five different concentrations of the studied compound in four parallel replicates. In order to achieve a full dose-response relationship, the concentration series covered the range of 0–100% immobilization. The number of immobilized or dead organisms was checked after 24 and 48 h. The negative effect of exposure to the tested compounds was expressed by the number of immobilized organisms compared to the controls.

[1] = growth inhibition by cell counts, 72 h
[2] = Aliivibrio fischeri, concentration 100 mg L^−1, read-out: Luminescence inhibition
[3] = Raphidocelis subcapitata, concentration 100 mg L^−1, read-out: Growth inhibition of R. subcapitata
[4] = Lemna minor, read-out: Growth inhibition of L. minor
[5] = Aliivibrio fischeri, read-out: Luminescence inhibition
[6] = Raphidocelis subcapitata, read-out: Growth inhibition of R. subcapitata
[7] = Daphnia magna, read-out: Immobilization

SMILES: COc1ccc2cc([C@H](C)C(=O)O)ccc2c1 (single isomer, unassigned) [NAP Isomer S, S-naproxen]
- EC50 V. fischeri (with confidence interval 2.5–97.5%) (Vibrio fischeri; luminescence inhibition, 30 min, 15 °C): 20.60 (19.50–21.75) mg L^−1
- EC50 R. subcapitata (with confidence interval 2.5–97.5%) (Raphidocelis subcapitata; [1]): 27.80 (25.67–30.05) mg L^−1
- EC50 L. minor (with confidence interval 2.5–97.5%) (Lemna minor): 29.14 (27.19–31.40) mg L^−1
- EC50 D. magna (with confidence interval 2.5–97.5%) (Daphnia magna; immobilization, 48 h): 68.76 (54.64–90.98) mg L^−1

SMILES: CC(C)NCC(O)COc1ccc(CC(=O)O)cc1 (centres unmarked) [MET-ACID, Metoprolol acid]
- inhibition at 100 µg/mL (Vibrio fischeri; [2]): 0%
- inhibition at 100 µg/mL (Raphidocelis subcapitata; [3]): 0%
- inhibition at 100 µg/mL (Lemna minor; [4]): 5%
- toxicity to L. minor (Lemna minor): non-toxic
- mortality at 100 µg/mL (Daphnia magna; Daphnia magna): 0%

SMILES: CC(C(=O)O)c1ccc(CC(C)(C)O)cc1 (centres unmarked) [2-OH-IBU, 2-Hydroxyibuprofen]
- inhibition at 10 µg/mL (Vibrio fischeri; Aliivibrio fischeri, concentration 10 mg L^−1, read-out: Luminescence inhibition): 4%
- inhibition at 100 µg/mL (Raphidocelis subcapitata; [3]): 16%
- inhibition at 15 µg/mL (Lemna minor; [4]): 11%
- mortality at 50 µg/mL (Daphnia magna; Daphnia magna, concentration 50 mg L^−1): 0%

SMILES: NC(=O)N1c2ccccc2CC(O)c2ccccc21 (centres unmarked) [10-OH-CRB, 10,11-Dihydro-10-hydroxycarbamazepine]
- inhibition at 100 µg/mL (Raphidocelis subcapitata; [3]): 15%
- inhibition at 50 µg/mL (Lemna minor; [4]): 11%

SMILES: CC(C)Cc1ccc([C@@H](C)C(=O)O)cc1 (single isomer, unassigned) [IBU Isomer R, R-ibuprofen]
- EC50 R. subcapitata (with confidence interval 2.5–97.5%) (Raphidocelis subcapitata; [1]): 11.65 (10.21–13.26) mg L^−1
- EC50 L. minor (with confidence interval 2.5–97.5%) (Lemna minor): 12.36 (10.80–14.07) mg L^−1
- EC50 D. magna (with confidence interval 2.5–97.5%) (Daphnia magna; immobilization, 48 h): 65.83 (59.54–72.54) mg L^−1

SMILES: CN(C)CC1CCCCC1(O)c1cccc(O)c1 (centres unmarked) [O-DES-TRA, O-Desmethyltramadol]
- inhibition at 100 µg/mL (Vibrio fischeri; [5]): 0%
- inhibition at 100 µg/mL (Raphidocelis subcapitata; [6]): 35%
- inhibition at 100 µg/mL (Lemna minor; [4]): 0%
- toxicity to L. minor (Lemna minor): non-toxic
- mortality at 70 µg/mL (Daphnia magna; [7]): 8%

SMILES: CC(=O)Nc1ccc(S(=O)(=O)Nc2cc(C)on2)cc1 [N4-SMZ, N^4-Acetylsulfamethoxazole]
- toxic effect / risk to V. fischeri (Vibrio fischeri): negligible
- inhibition at 50 µg/mL (Vibrio fischeri; [5]): 8%
- inhibition at 5 µg/mL (Raphidocelis subcapitata; [6]): 27%
- inhibition at 3 µg/mL (Lemna minor; [4]): 17%
- mortality at 40 µg/mL (Daphnia magna; [7]): 0%

SMILES: CC(C)Cc1ccc([C@H](C)C(=O)O)cc1 [IBU Isomer S, S-ibuprofen]
- EC50 (Raphidocelis subcapitata; Raphidocelis subcapitata, 72 h, growth inhibition by cell counts, 72 h, read-out: EC50 R. subcapitata (with confidence interval 2.5–97.5%)): 26.6 mg/L (≈ 129 µM)
- EC50 (Lemna minor; Lemna minor, 168 h, read-out: EC50 L. minor (with confidence interval 2.5–97.5%), growth rate inhibition by frond area, 7 days): 26.3 mg/L (≈ 128 µM)
- EC50 (Daphnia magna; Daphnia magna, immobilization, 48 h, read-out: EC50 D. magna (with confidence interval 2.5–97.5%)): 63.1 mg/L (≈ 306 µM)

SMILES: NC(=O)N1c2ccccc2C2OC2c2ccccc21 (centres unmarked) [CRB-Ep, Carbamazepine 10,11-epoxide]
- inhibition at 100 µg/mL (Vibrio fischeri; [2]): 30%
- inhibition at 100 µg/mL (Raphidocelis subcapitata; [3]): 37%
- inhibition at 50 µg/mL (Lemna minor; [4]): 32%
- mortality at 100 µg/mL (Daphnia magna; Daphnia magna): 0%
